Data: US20240254144A1, “SALT FORM OF PYRROLOTRIAZINE COMPOUND, CRYSTAL FORM THEREOF, AND PREPARATION METHOD THEREFOR” (JUMBO DRUG BANK CO., LTD., priority 2021, published 2024)
Blank lines part the entries; values can stand above or below the compound they belong to.

Experiments:
[1] = Solid stability test (long-term and accelerated lofting); format: physicochemical
Text: Each sample was separately put into a double-layer LDPE bag with each layer of LDPE bag sealed by a binding buckle. The bag was then put into an aluminum foil bag for heat sealing, and then put into a stability box under corresponding conditions for observation.

[2] = Hygroscopicity by dynamic vapor sorption (DVS); format: physicochemical
Text: SMS DVS intrinsic dynamic vapor sorption instrument

[3] = target: T1, MNK2 (h) protein kinase (Homo sapiens, UniProt Q9HBH9); experiment: Inhibitory activity against MNK2 protein kinase (KinaseProfiler, 33P-ATP filter-binding); format: biochemical; details: myelin basic protein substrate, 40 min at room temperature
T1 construct: purchased Eurofins Pharma Discovery Services UK Limited (KinaseProfiler service)
Procedure: Purpose of experiment: to test the inhibitory activity of the compound against MNK2 protein kinase Experimental materials: assay buffer: 8 mM 3-(N-morpholino)propanesulfonic acid, 0.2 mM disodium ethylenediaminetetraacetate, 0.01% polyoxyethylene lauryl ether, 5% glycerol, 0.1% β-mercaptoethanol and 1 mg of bovine serum albumin
Experimental operation: Mnk2 protein kinase inhibitory activity assays were performed using the KinaseProfiler™ service from Eurofins Pharma Discovery Services UK Limited. Serially diluted DMSO solutions containing the compound to be tested (3-fold serial dilution, starting from 10 μM), MNK2 (h) protein kinase and 0.33 mg/mL myelin basic protein were added to a freshly prepared buffer (pH=7.0), and then stirred homogeneously. The reaction was initiated by adding a mixture of ^33P-ATP (intensity of radioactivity: 10 μCi/μL) and 10 mM magnesium acetate. After the resulting mixture was reacted at room temperature for 40 min, the reaction was terminated by adding phosphoric acid to dilute to a concentration of 0.5%. […] After drying, the intensity of radioactivity was determined using the Filter-Binding method.
The protein kinase inhibitory activity of the compound was expressed as a percentage of the residual protein kinase activity relative to the blank substrate (DMSO alone). […]

[4] = Crystal form screening / stability in different solvents; format: physicochemical; details: stirred at 50° C. for 3 h, XRPD
Procedure: About 50 mg of the compound of formula (II) was weighed out separately and dissolved in different solvents, the mixtures were stirred at 50° C. for 3 h. The reaction liquids were cooled to room temperature, filtered for collection, and dried in vacuum, and the obtained solids were tested by XRPD.

T1 sequence (Q9HBH9 whole entry): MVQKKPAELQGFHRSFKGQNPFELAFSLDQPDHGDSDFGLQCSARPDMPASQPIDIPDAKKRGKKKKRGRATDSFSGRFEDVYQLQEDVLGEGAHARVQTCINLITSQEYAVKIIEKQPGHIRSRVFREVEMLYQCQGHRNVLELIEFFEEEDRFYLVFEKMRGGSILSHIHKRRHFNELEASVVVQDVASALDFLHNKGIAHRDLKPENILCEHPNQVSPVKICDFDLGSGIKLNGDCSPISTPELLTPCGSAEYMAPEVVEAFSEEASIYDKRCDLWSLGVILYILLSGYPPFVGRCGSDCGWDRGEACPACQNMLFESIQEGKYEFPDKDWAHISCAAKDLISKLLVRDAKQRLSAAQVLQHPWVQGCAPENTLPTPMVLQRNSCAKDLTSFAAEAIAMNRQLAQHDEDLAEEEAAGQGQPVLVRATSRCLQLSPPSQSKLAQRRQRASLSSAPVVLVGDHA

- Crystal form ([1]; 25° C./60% RH, 12 months): Crystal form A
- Crystal form ([1]; 25° C./60% RH, Day 0): Crystal form A
- Crystal form ([1]; 40° C./75% RH, 6 months): Crystal form A
- Crystal form ([1]; 40° C./75% RH, Day 0): Crystal form A
- hygroscopic weight gain ΔW ([2]; 25° C. and 80% RH, DVS): 1.179%
- hygroscopicity (in words) ([2]; 25° C. and 80% RH, DVS): relatively weak hygroscopicity
- crystal form before and after the hygroscopic test ([2]; DVS 0%~95%~0% RH, 25° C.): not changed
Compound: Cc1cc(Nc2ncnn3cc(OCCN4CCC(F)(F)C4)c(C)c23)c(=O)n2c1C(=O)NC21CCCC1

- IC50 [3]: 17 nM
Compound: Cc1cc(Nc2ncnn3cc(OCCN4CCC(F)(F)C4)c(C)c23)c(=O)n2c1C(=O)NC21CCCC1 [Compound of formula (I)]

- Crystal form ([4]; Acetonitrile): Crystal form A
- Crystal form ([4]; Ethanol): Crystal form B
- Crystal form ([4]; Methanol): Crystal form A
- Crystal form ([4]; n-Heptane): Crystal form B
- Crystal form ([4]; tert-Butyl methyl ether): Crystal form A
Compound: Cc1cc(Nc2ncnn3cc(OCCN4CCC(F)(F)C4)c(C)c23)c(=O)n2c1C(=O)NC21CCCC1 [compound of formula (II)]
